From patent US20160045505A1, “COMPOUNDS AND COMPOSITIONS FOR THE TREATMENT OF PARASITIC DISEASES” (NOVARTIS AG, priority 2013, published 2016)
Read-outs that look alike come from different tables or passages of the source.

Experiments:
[1] = system: Leishmania donovani axenic amastigote parasites; experiment: Leishmania donovani axenic amastigote proliferation assay (Cell TiterGlo luminescence, 2 day incubation); assay type: cell-based; conditions: Leishmania donovani, read-out: L. donovani amastigotes EC50
[2] = system: L. donovani HU3 strain in mouse peritoneal macrophages; experiment: Assay for proliferation of Leishmania parasites in infected mouse peritoneal macrophages (SybrGreen staining, high-content imaging, 5 days); assay type: cell-based, Leishmania donovani; conditions: Leishmania donovani, Peritoneal macrophage, L. donovani in mouse peritoneal macrophages, read-out: L. donovani Macrophage EC50
[3] = system: Trypanosoma brucei Lister 427 strain, bloodstream form; experiment: Assay for proliferation of kinetoplastid parasite Trypanosoma brucei (Cell Titer Glo, 48 hours); assay type: cell-based; conditions: Trypanosoma brucei, T. brucei Lister 427 bloodstream form, read-out: T. brucei EC50
Method in brief: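 Bloodstream-form T. brucei Lister 427 in HMI-9 medium was exposed to compound (DMSO vehicle) for 48 hours at 37° C, 5% CO2. Parasite growth was read as ATP by CellTiter-Glo luminescence, with EC50 calculated from percent inhibition.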

[4] = system: Trypanosoma cruzi amastigotes (Tulahuen strain expressing Lac-Z) cultured in 3T3 fibroblast cells; experiment: microbe, parasite or virus in culture; assay type: cell-based; conditions: Trypanosoma cruzi, TULAHUEN, Fibroblast, T. cruzi amastigotes in 3T3 fibroblast cells, read-out: T cruzi EC50
[5] = axenic amastigotes, inhibition of proliferation

Structure (SMILES)	EC50 [1, 5] [µM]	EC50 ([2]; inhibition of proliferation) [µM]	EC50 ([3]; inhibition of proliferation) [µM]	EC50 ([4]; inhibition of proliferation) [µM]	EC50 ([1]; L. donovani axenic amastigotes) [µM]	EC50 [2] [µM]	EC50 [3] [µM]	EC50 [4] [µM]
Cc1ncc(C(=O)Nc2ccc(F)c(-c3cn4cc(-c5ccccc5)cnc4n3)c2)o1 [Compound 329]	0.026	0.057	0.055	0.007				
Cc1ncc(C(=O)Nc2ccc(F)c(-c3cn4cc(NC(C)C)cnc4n3)c2)o1 [Compound 462]					0.174	0.403	0.129	0.151
Cc1ncc(C(=O)Nc2ccc(F)c(-c3cn4cc(-c5ccccn5)cnc4n3)c2)o1 [Compound 198]	0.007	0.016	0.018	0.016				
Cc1ncoc1C(=O)Nc1cccc(-c2cn3cc(NC(=O)OC(C)C)cnc3n2)c1 [Compound 204]	0.941	19.2	0.676	4.1				
CC(C)OC(=O)Nc1ccc(F)c(-c2cn3cc(C4=CCOCC4)cnc3n2)c1 [Compound 332]	0.166	0.592	0.124	0.134				
O=C(Nc1cccc(-c2cn3cc(-c4ccccc4)cnc3n2)c1)N1CC[C@@H](F)C1 [Compound 337]	0.072	0.195	0.024	0.068				
O=C(Nc1ccc(F)c(-c2cn3cc(Cl)cnc3n2)c1)N1CCC1 [Compound 237]	0.217	0.877	0.122	0.229				
Cc1ncc(C(=O)Nc2ccc(F)c(-c3cn4cc(-c5cccnc5)cnc4n3)c2)o1 [Compound 398]					0.186	0.424	0.317	0.572
Cc1nc(C)c(C(=O)N(C)c2ccc(F)c(-c3cn4cc(N(C)C(=O)OC(C)C)cnc4n3)c2)o1 [Compound 553]					3.48	3.61	4.29	3.11
CC(C)OC(=O)Nc1cnc2nc(-c3cc(NC(=O)c4cccs4)ccc3F)cn2c1 [Compound 75]	0.581	> 6.02	0.482	0.15				
CN(C)c1cnc2nc(-c3cc(NC(=O)N4CC[C@@H](F)C4)ccc3F)cn2c1 [Compound 468]					0.087	0.23	0.015	0.146
O=C(Nc1cnc2nc(-c3cc(NC(=O)N4CCCC4)ccc3F)cn2c1)c1ccccn1 [Compound 147]	0.074	0.067	0.019	0.065				
Cc1nc(C)c(C(=O)Nc2ccc(F)c(-c3cn4cc([Si](C)(C)C)cnc4n3)c2)o1 [Compound 549, N-(4-fluoro-3-(6-(trimethylsilyl)imidazo[1,2-a]pyrimidin-2-yl)phenyl)-2,4-dimethyloxazole-5-carboxamide]					0.133	0.448	0.117	0.063
Cc1nc(C)c(C(=O)Nc2ccc(F)c(-c3cn4cc(NC(=O)C5CCCOC5)cnc4n3)c2)o1 (stereo not shown) [Compound 154]	0.997	2.53	1.48	6.18				
COCCOC(=O)Nc1cnc2nc(-c3cc(NC(=O)N4CCCC4)ccc3F)cn2c1 [Compound 313]	0.761	> 50	0.502	13.3				
O=C(Nc1ccc(F)c(-c2cn3cc(OCCN4CCOCC4)cnc3n2)c1)N1CCCC1 [Compound 563]					14.2	8.5	> 50	6.7
CC(C)OC(=O)N(C)c1cnc2nc(-c3cc(N(C)C(=O)c4ccc(Cl)o4)ccc3F)cn2c1 [Compound 551, isopropyl (2-(5-(5-chloro-N-methylfuran-2-carboxamido)-2-fluorophenyl)imidazo[1,2-a]pyrimidin-6-yl)(methyl)carbamate]					11	6.94	9.32	3.28

Structure (SMILES)	EC50 [1, 5] [µM]	EC50 ([2]; inhibition of proliferation) [µM]	EC50 ([3]; inhibition of proliferation) [µM]	EC50 ([4]; inhibition of proliferation) [µM]	EC50 ([1]; L. donovani axenic amastigotes) [µM]	EC50 [2] [µM]	EC50 [3] [µM]	EC50 [4] [µM]
O=C(Nc1ccc(F)c(-c2cn3cc(C4CC4)cnc3n2)c1)C1COCCO1 (stereo not shown) [Compound 600]					1.46	> 50	1.78	1.75
CC(C)OC(=O)Nc1cnc2nc(-c3cc(NC(=O)c4ccnn4C)ccc3F)cn2c1 [Compound 74]	0.608	3.89	0.49	0.608				
COCCOC(=O)Nc1cnc2nc(-c3cc(NC(=O)c4oc(C)nc4C)ccc3F)cn2c1 [Compound 304]	0.539	10.5	1.42	2.37				
CC(C)(C)OC(=O)N1CCOC(C(=O)Nc2ccc(F)c(-c3cn4cc(C5CC5)cnc4n3)c2)C1 (stereo not shown) [Compound 602]					> 25	> 50	> 50	13.6
CNc1ccc(-c2cnc3nc(-c4cc(NC(=O)c5oc(C)nc5C)ccc4F)cn3c2)cc1 [Compound 392]					0.103	0.152	0.055	0.048
Cc1nc(C)c(C(=O)Nc2ccc(F)c(-c3cn4cc(NC(=O)[C@@H]5CCCO5)cnc4n3)c2)o1 [Compound 161]	0.206	0.655	0.17	2.54				
C=C(C)OC(=O)Nc1cnc2nc(-c3cc(NC(=O)c4oc(C)nc4C)ccc3F)cn2c1 [Compound 311]	0.162	12	1.67	5.58				
Cc1nc(C)c(C(=O)Nc2ccc(F)c(-c3cn4cc(NC5=NCC(C(F)(F)F)O5)cnc4n3)c2)o1 (stereo not shown) [Compound 508]					1.71	8.24	4.36	11.5
CC(C)OC(=O)Nc1cnc2nc(-c3cc(NC(=O)c4ccn(C)n4)ccc3F)cn2c1 [Compound 98]	0.645	3.34	0.503	0.549				
CC1=C(C(=O)Nc2cnc3nc(-c4cc(NC(=O)c5oc(C)nc5C)ccc4F)cn3c2)OCCO1 [Compound 116]	0.096	0.484	0.153	3.42				
Cc1nc(C)c(C(=O)Nc2ccc(F)c(-c3cn4cc(C5=CC(C)(C)OC(C)(C)C5)cnc4n3)c2)o1 [Compound 379]					0.528	1.68	1.43	0.683
CCn1ccnc1C(=O)Nc1cnc2nc(-c3cc(NC(=O)N4CCCC4)ccc3F)cn2c1 [Compound 142]	0.063	0.506	0.121	0.179				
Cc1nc(C)c(C(=O)Nc2ccc(F)c(-c3cn4cc(NCc5c[nH]cn5)cnc4n3)c2)o1 [Compound 480]					> 22.3	> 50	8.42	> 20
Cc1nnc(C(=O)Nc2ccc(Cl)c(-c3cn4cc(NC(=O)OC(C)C)cnc4n3)c2)o1 [Compound 527]					> 25	5.77	> 50	> 20
CC(C)(C)OC(=O)N1CCOCC1C(=O)Nc1ccc(F)c(-c2cn3cc(C4CC4)cnc3n2)c1 (stereo not shown) [Compound 603]					17.8	12.7	8.17	5.84
Cc1nc(C)c(C(=O)Nc2ccc(F)c(-c3cn4cc(NC5CC5)cnc4n3)c2)o1 [Compound 494]					3.52	4.06	1.01	1.3
O=C(Nc1cnc2nc(-c3cc(NC(=O)N4CCCC4)ccc3F)cn2c1)[C@@H]1CNCCO1 [Compound 130]	13.9	26.6	4.66	7.12				
